In ChEMBL document CHEMBL1201862, “PubChem BioAssay data set” (2004):
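These data come from cells grown in 96-well plates and exposed to compound for 48 hours at five concentrations. Here, GI50 denotes the concentration required for 50% inhibition of growth.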 Activity calls are given as the source filed them. Rule as the data show it: active = GI50 up to about 1.1 µM and inactive = higher.

Tests used:
Experiment in all cases: NCI anticancer screen, dose series, 48 h
SN12C = tested on: SN12C
RPMI-8226 = tested on: RPMI-8226
HL-60 = tested on: HL-60
OVCAR-3 = tested on: OVCAR-3
PC-3 = tested on: PC-3
OVCAR-4 = tested on: OVCAR-4
HOP-62 = tested on: HOP-62
HCT-116 = tested on: HCT-116
M14 = tested on: M14
RXF 393 = tested on: RXF 393
KM12 = tested on: KM12
OVCAR-5 = tested on: OVCAR-5
T47D = tested on: T47D
COLO 205 = tested on: COLO 205
SK-MEL-2 = tested on: SK-MEL-2
K562 = tested on: K562
HCC 2998 = tested on: HCC 2998
NCI-H23 = tested on: NCI-H23
SW-620 = tested on: SW-620
TK-10 = tested on: TK-10

Measured: GI50

CCOC(=O)CCc1c(C(=O)OCC)[nH]c(/C=C2\NC(=O)C(C)=C2CC)c1C
inactive: SN12C 32.6 µM | RPMI-8226 > 100 µM | HL-60 > 100 µM | OVCAR-3 18.5 µM | PC-3 26.4 µM | OVCAR-4 20.4 µM | HOP-62 14.5 µM | HCT-116 33.7 µM | M14 24.8 µM | RXF 393 23.2 µM | KM12 > 100 µM | OVCAR-5 25.6 µM | T47D 10.1 µM | COLO 205 > 100 µM | SK-MEL-2 18.1 µM | K562 > 100 µM

CC(C)N1CC2CN(Cc3ccccc3)CC(C1)C2=O
inactive: SN12C > 100 µM | RPMI-8226 > 100 µM | HL-60 > 100 µM | OVCAR-3 > 100 µM | PC-3 > 100 µM | HCC 2998 > 100 µM | OVCAR-4 > 100 µM | HOP-62 > 100 µM | HCT-116 > 100 µM | M14 > 100 µM | RXF 393 > 100 µM | NCI-H23 > 100 µM | KM12 > 100 µM | OVCAR-5 > 100 µM | COLO 205 > 100 µM | SK-MEL-2 > 100 µM | K562 > 100 µM | SW-620 > 100 µM | TK-10 > 100 µM

Cc1cc2c(cc1-c1cc3c(cc1C)C(C(C)C)=C(O)C(=O)/C3=C\Nc1c(C)n(C)n(-c3ccccc3)c1=O)/C(=C/Nc1c(C)n(C)n(-c3ccccc3)c1=O)C(=O)C(O)=C2C(C)C
inactive: SN12C > 100 µM | RPMI-8226 71.9 µM | HL-60 33.9 µM | OVCAR-3 50.2 µM | PC-3 66.2 µM | OVCAR-4 > 100 µM | HOP-62 70.1 µM | HCT-116 > 100 µM | M14 50.1 µM | RXF 393 26.1 µM | NCI-H23 > 100 µM | KM12 71.6 µM | OVCAR-5 > 100 µM | T47D > 100 µM | COLO 205 82.6 µM | SK-MEL-2 > 100 µM | K562 > 100 µM | SW-620 61.9 µM

Cc1c(C#N)c(N)n(C2OC(CO)C(O)C(O)C2O)c(=S)c1C#N (stereo not drawn)
inactive: SN12C > 100 µM | RPMI-8226 > 100 µM | HL-60 > 100 µM | OVCAR-3 > 100 µM | PC-3 > 100 µM | HCC 2998 > 100 µM | OVCAR-4 > 100 µM | HOP-62 > 100 µM | HCT-116 > 100 µM | M14 > 100 µM | RXF 393 > 100 µM | NCI-H23 > 100 µM | KM12 > 100 µM | OVCAR-5 > 100 µM | K562 > 100 µM | SW-620 > 100 µM | TK-10 > 100 µM

CN(C)/C=N\c1nncc2[nH]nnc12
inactive: SN12C > 100 µM | RPMI-8226 > 100 µM | HL-60 5.97 µM | OVCAR-3 > 100 µM | PC-3 > 100 µM | HOP-62 > 100 µM | HCT-116 > 100 µM | M14 > 100 µM | RXF 393 > 100 µM | NCI-H23 > 100 µM | KM12 > 100 µM | OVCAR-5 > 100 µM | T47D > 100 µM | COLO 205 > 100 µM | SK-MEL-2 > 100 µM | K562 > 100 µM | SW-620 > 100 µM | TK-10 > 100 µM

Oc1ccccc1/C=N/Nc1nnc2c3ccccc3c3ccccc3c2n1
inactive: SN12C > 100 µM | RPMI-8226 > 100 µM | HL-60 > 100 µM | OVCAR-3 14.6 µM | PC-3 80.5 µM | OVCAR-4 > 100 µM | HOP-62 42.6 µM | HCT-116 > 100 µM | M14 > 100 µM | RXF 393 25.1 µM | NCI-H23 > 100 µM | KM12 71.4 µM | OVCAR-5 > 100 µM | T47D 65 µM | COLO 205 > 100 µM | SK-MEL-2 55.5 µM | K562 > 100 µM | SW-620 82.4 µM | TK-10 45.4 µM

CSCCCNC(=O)c1csc(-c2csc(CCNC(=O)CNC(=O)OC(C)(C)C)n2)n1
inactive: SN12C > 100 µM | OVCAR-3 > 100 µM | PC-3 > 100 µM | HCC 2998 > 100 µM | OVCAR-4 > 100 µM | HOP-62 > 100 µM | HCT-116 > 100 µM | M14 > 100 µM | RXF 393 > 100 µM | NCI-H23 77.6 µM | KM12 > 100 µM | OVCAR-5 > 100 µM | COLO 205 > 100 µM | SK-MEL-2 > 100 µM | K562 > 100 µM | SW-620 > 100 µM | TK-10 > 100 µM

CC[N+](C)(CC)Cc1ccccc1[N+](=O)[O-]
inactive: SN12C > 100 µM | RPMI-8226 > 100 µM | HL-60 > 100 µM | OVCAR-3 26.9 µM | PC-3 44.8 µM | OVCAR-4 > 100 µM | HOP-62 48.4 µM | HCT-116 > 100 µM | M14 > 100 µM | RXF 393 > 100 µM | NCI-H23 > 100 µM | KM12 > 100 µM | OVCAR-5 > 100 µM | T47D > 100 µM | COLO 205 46 µM | SK-MEL-2 > 100 µM | K562 > 100 µM | SW-620 87.7 µM | TK-10 > 100 µM
